Values of other authors in patent publication US5214030A, “Calcitonin gene-related peptides for treating erectile dysfunctions” (priority 1989, dated 1993).

System: Cynomolgus monkey
Conditions: 1-2 intracavernosal injections per week over 12 months

## COc1ccc(Cc2nccc3cc(OC)c(OC)cc23)cc1OC [papaverine]
  findings in the erectile tissue: extensive fibrous formation in further parts of the erectile tissue
